Measured values: patent US20100286076A1, “ECTOPARASITICIDAL METHODS AND FORMULATIONS” (priority 2009, published 2010)

Assays:
[1] = system: adult stage kennel ticks, Rhipicephalus sanguineus; assay: Oral administration per os to dogs, experimental kennel tick infestation; assay type: in vivo; conditions: at the doses tested (30, 50 or 100 mg/kg)
Description: (§1) Oral administration per os to dogs. Given the above data, investigation into oral efficacy in dogs was begun. The investigation was conducted to evaluate 1) efficacy for a point dose of 30 mg/kg, against experimental, concurrent infestations with the adult cat flea, Ctenocephalides felis; adult stage American dog ticks, Dermacentor variabilis; and adult stage kennel ticks, Rhipicephalus sanguineus; 2) plasma concentrations of the 30 mg/kg treated dogs; and 3) efficacy for point dosages of either 50 mg/kg or 100 mg/kg, against experimental infestations with adult stage kennel ticks, R. sanguineus.
(§2) Sixteen dogs were selected for two groups of eight dogs (4 male: 4 female) per group. One treatment group received spinetoram, while the other group was left untreated. The dogs were housed individually in concrete-floored chain-link kennels both inside and outside. During the study period the dogs were fed a dry dog chow, except for the day of treatment (day 0) when they received wet canned food. The dogs had ad libitum access to water. […]
(§3) Each dog was experimentally infested with about 100 adult fleas, and 50 ticks of each species on test days—1,5,12,19, 28, 35, and 42, with additional flea infestations conducted on days 49 and 56. […] Knockdown activity (Day 1) was determined using 24 hr post-dosing comb counts. […]

[2] = system: adult cat flea, Ctenocephalides felis; assay: Oral administration per os to dogs, experimental adult cat flea infestation, comb counts; assay type: in vivo
Description: as §1
Sixteen dogs were selected for two groups of eight dogs (4 male: 4 female) per group. One treatment group received spinetoram, while the other group was left untreated. The dogs were housed individually in concrete-floored chain-link kennels both inside and outside. During the study period the dogs were fed a dry dog chow, except for the day of treatment (day 0) when they received wet canned food. The dogs had ad libitum access to water.
The first group on day 0 received one or more gelatin capsules containing spinetoram powder by mouth, in the amount of 30 mg/kg, while the untreated group received placebo. For the evaluation of the higher doses (50 and 100 mg/kg) for efficacy against R. sanguineus, dogs from the 30 mg/kg group were re-dosed at the higher levels approximately 2.5 months after the low dose administration, once the flea efficacy data had been collected.
Each dog was experimentally infested with about 100 adult fleas, and 50 ticks of each species on test days—1,5,12,19, 28, 35, and 42, with additional flea infestations conducted on days 49 and 56. Knockdown assessments against both ticks and fleas were conducted 24 hours after dosing. All subsequent counts were conducted 48 hours after infestation. For the higher doses, the dogs were infested with around 50 R. sanguineus ticks one day before re-dosing and again 5 days post re-dosing, with comb counts conducted approximately 24 hours thereafter. Knockdown activity (Day 1) was determined using 24 hr post-dosing comb counts. For all post-treatment residual tick counts, the comb count occurred 48 hours post infestation. Blood samples were drawn on days 14, 21, 28, and 35 to determine concentration of spinetoram in plasma.

[3] = system: adult stage American dog ticks, Dermacentor variabilis; assay: Oral administration per os to dogs, experimental American dog tick infestation; assay type: in vivo; conditions: at the doses tested (30 mg/kg)
Description: as §1, §2, §3

House Fly = assay: Adult House Fly Assay (AhsF), feeding on compound-soaked dental wicks, 24 h mortality; parameters: species or system Musca domestica; conditions: adult house flies
Description: Adult Stable or House Fly Assay (ASF, AhsF). This assay is conducted essentially as described in White, W. H., S. M. Bauer, X. Zhao et al., Comparison of in vitro and in vivo ectoparasiticide activity of an experimental benzimidazole-carbamate with permethrin and amitraz, J. Med. Entomol. 42, 207-211 (2005); and White, W. H., C. M. McCoy, J. A. Meyer et al., Knockdown and mortality comparisons among spinosad-, imidacloprid-, and methomyl-containing baits against susceptible Musca domestica (Diptera: Muscidae) under laboratory conditions, J. Econ. Entomol. 100, 155-163 (2007).
Test material is formulated in DMSO at 10 mM. Doubling dilutions in like solvent are made to yield 10 testing levels. Materials are diluted in either bovine serum (stable flies) or 5% glucose solution (house flies) to obtain desired exposure concentrations from 200-0.39 μM. Approximately 3 ml of diluted test material is placed into a test tube (n=3 per test level) and a dental wick is used to absorb fluid. One dental wick is placed into a small weigh boat inside of a 100 mm Petri dish. Approximately 10 mixed-sex adult flies are anesthetized using carbon dioxide and counted into each dish. Dishes are incubated at 27° C. and 50-70% relative humidity. Flies recover from anesthesia and feed on compound-soaked dental wicks. After 24 h, live/dead flies are enumerated. Nonlinear regression is used to model dose-mortality relationship and obtain relative potency (LD50) data compared to contemporaneous controls (solvent-only or permethrin).

## Spinetoram
[1]
  activity against ticks: did not demonstrate statistically significant activity
[2]; oral 30 mg/kg, Day 7
  geometric mean percent flea reduction, Day 7: 100%
[2]; oral 30 mg/kg, Day 14
  geometric mean percent flea reduction, Day 14: 100%
[2]; oral 30 mg/kg, Day 21
  geometric mean percent flea reduction, Day 21: 99.5%
[2]; oral 30 mg/kg, Day 30
  geometric mean percent flea reduction, Day 30: 100%
[2]; oral 30 mg/kg, Day 37
  geometric mean percent flea reduction, Day 37: 98.9%
[2]; oral 30 mg/kg, Day 44
  geometric mean percent flea reduction, Day 44: 99.7%
[2]; oral 30 mg/kg, Day 51
  geometric mean percent flea reduction, Day 51: 98.2%
[2]; oral 30 mg/kg, Day 58
  geometric mean percent flea reduction, Day 58: 96.9%
[2]; oral 30 mg/kg, Knockdown
  geometric mean percent flea reduction, Knockdown: 99.7%
[2]; oral point dose 30 mg/kg, extends beyond 8 weeks
  residual control: > 97%
[3]
  activity against ticks: did not demonstrate statistically significant activity
House Fly; 24 h, 5% glucose solution, read-out: Potency (24 h EC50 μM)
  EC50: 2.18 µM
House Fly; 24 h EC50
  Spinetoram/Spinosad Potency Ratio: 5.5
